biological target: Cyclin-dependent kinase 2/G1/S-specific cyclin-E1 (Homo sapiens, UniProt P24941+P24864); assay: Biological Activity Assay
Method: Kinase enzymatic reactions were performed in 384-well microplates using a 12-channel Caliper LabChip instrument as a detection device. […] As substrate and product are separated, two peaks of fluorescence are observed. Change in the relative fluorescence intensity of the substrate and product peaks is the parameter measured, reflecting enzyme activity. In the presence of an inhibitor, the ratio between product and substrate is altered. […] Potential inhibitor compounds (as HCl salts) were tested using 12-point dose response curves in single point at the Km for ATP.

IC50, > 100 µM:
CC(C)C1CNC(=O)C2=CC3C=NC(Nc4ccc(N5CCN(C)CC5)cn4)=NC3N21 (centres undefined) [US10696682, Compound 7]
CN1CCN2C(=CC3C=NC(Nc4ccc(N5CCNCC5)cn4)=NC32)C1=O (centres undefined) [US10696682, Compound 5]
CCC(C)[C@H]1CN(C)C(=O)C2=CC3C=NC(Nc4ccc(N5CCNCC5)cn4)=NC3N21 (some centres undefined) [US10696682, Compound 19]
CC(C)[C@H]1CN(C)C(=O)C2=CC3C=NC(Nc4ccc(N5CCNCC5)cn4)=NC3N21 (some centres undefined) [US10696682, Compound 11]
CC(C)C[C@H]1CN(C)C(=O)C2=CC3C=NC(Nc4ccc(N5CCNCC5)cn4)=NC3N21 (some centres undefined) [US10696682, Compound 15]
CN1CC2(CCCC2)N2C(=CC3C=NC(Nc4ccc(N5CCNCC5)cn4)=NC32)C1=O (centres undefined) [US10696682, Compound 31]
CN1CCN(c2ccc(NC3=NC4C(C=N3)C=C3C(=O)N[C@H]5CCC[C@@H]5N34)nc2)CC1 (some centres undefined) [US10696682, Compound 48]
CCC(C)[C@H]1CN(C)C(=O)C2=CC3C=NC(Nc4ccc(N5CCN(C)CC5)cn4)=NC3N21 (some centres undefined) [US10696682, Compound 18]
CC(C)CC1CN(C)C(=O)C2=CC3C=NC(Nc4ccc(N5CCNCC5)cn4)=NC3N21 (centres undefined) [US10696682, Compound 47]

Source: BindingDB's records for patent US10696682 (G1 Therapeutics, 2020)
